Our source for the IC50 values is US10280171B2, “Heterocyclic inhibitors of PTPN11” (priority 2016, dated 2019).

Each structure is given as a SMILES string. Where two headings read alike, the source gives them in different places.

Test [1] has as its system Phospho-ERK levels in KYSE-520 cells. As to the kind of experiment: ERK Phosphorylation (Phospho-ERK) Target Engagement Assay (HTRF). Particulars: Homo sapiens, 2 hr compound incubation, phospho-ERK1/2 HTRF kit, read-out: pERK target engagement assay Avg IC50. It is filed as cell-based. The procedure: KYSE-520 cells (10 k cells/well) are plated onto 384-well plate in 20 uL of medium (RPMI-1640, without phenol red, containing 10% FBS) and incubated at 37° C., 5% CO2 16 h. DMSO (control) or increasing concentrations of compounds are diluted in medium, added to the 384-well plate (10 uL/well, final DMSO concentration of 0.5-1%), and cells are then incubated with compounds for 2 hr. Phospho-ERK levels are measured using a TR-FRET based phospho-ERK1/2 HTRF kit (CisBio, 64ERKPEH) following manufacturer's recommendations, and fluorescence signal was measured at 665 nm and 620 nm using Synergy Neo plate reader. Dose-response curves were analyzed using IC50 regression curve fitting (GeneData Screener). Curves were normalized to a high controls without inhibitor, and low controls with 1 μM of selumetinib.
A general note: Time-resolved FRET reads energy transfer from a long-lived donor to a nearby acceptor.

Test [2] concerns the target PTPN11-E76K mutant enzyme (Homo sapiens (Human), UniProt Q06124, E76K). Description: PTPN11 Enzymatic Assay (DiFMUP phosphatase activity). Particulars: DiFMUP 50 μM, 30 min preincubation. It is filed as biochemical. The method, then: Reaction was initiated by addition of DiFMUP (50 μM) at room temperature in 384-well black plate with a final reaction volume of 20 uL in assay buffer. […] Dose-response curves were analyzed using IC50 regression curve fitting (GeneData Screener). Curves were normalized to a high controls without inhibitor, and low controls without enzyme.

In test [3] the test system is Phospho-ERK levels in KYSE-520 cells. Description: pERK AlphaScreen Protocol. The test is classed as cell-based. Particulars: KYSE-520 cells, 2 hr compound incubation, phospho-ERK1/2 AlphaScreen SureFire, read-out: PERK Avg IC50. Summed up: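 After overnight growth at 10 k cells/well in RPMI-1640 with 10% FBS, KYSE-520 cells received compound dilutions for 2 h at 1% final DMSO.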
For orientation: Bead proximity is the source of the signal in Alpha formats.

Where [4] appears, read: full length PTPN11-E76K mutant enzyme 250 pM, read-out: PTPN11-E76K Avg IC50.
The mark [5] stands for this setting: PTPN11-E76K Avg IC50, full length PTPN11-E76K mutant enzyme 250 pM.

Chain of PTPN11-E76K mutant enzyme (Q06124 whole entry E76K): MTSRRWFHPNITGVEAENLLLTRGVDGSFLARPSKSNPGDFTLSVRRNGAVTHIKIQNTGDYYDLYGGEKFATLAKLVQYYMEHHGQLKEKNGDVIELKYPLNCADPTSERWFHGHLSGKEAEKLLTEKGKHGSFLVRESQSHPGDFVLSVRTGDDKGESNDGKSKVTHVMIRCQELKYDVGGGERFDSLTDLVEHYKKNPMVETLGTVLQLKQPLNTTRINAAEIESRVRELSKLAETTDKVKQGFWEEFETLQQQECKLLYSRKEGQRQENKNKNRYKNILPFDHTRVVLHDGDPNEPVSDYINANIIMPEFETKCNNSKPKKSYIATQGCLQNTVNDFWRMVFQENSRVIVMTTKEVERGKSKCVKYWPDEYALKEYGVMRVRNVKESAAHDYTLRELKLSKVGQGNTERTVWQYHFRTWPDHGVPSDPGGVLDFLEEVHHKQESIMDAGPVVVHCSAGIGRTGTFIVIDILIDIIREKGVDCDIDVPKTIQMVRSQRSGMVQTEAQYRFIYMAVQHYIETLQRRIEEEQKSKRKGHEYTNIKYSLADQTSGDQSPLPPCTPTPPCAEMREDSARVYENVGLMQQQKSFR

Usually IC50 stands for the midpoint of a concentration-inhibition curve. For `CC1(CN)CCN(c2cnc3c(-c4cccc(Cl)c4Cl)n[nH]c3n2)CC1` [Example 4, (1-(3-(2,3-dichloro-phenyl)-1H-pyrazolo[3,4-b]-pyrazin-6-yl)-4-methylpiperidin-4-yl)methanamine], the IC50 in test [1] stood at 73 nM. Turning to `N[C@@H]1CCCC12CCN(c1cnc3c(-c4ccc(F)c(Cl)c4)n[nH]c3n1)CC2` [Example 47, (R)-8-(3-(3-chloro-4-fluorophenyl)-1H-pyrazolo[3,4-b]-pyrazin-6-yl)-8-aza-spiro[4.5]decan-1-amine], the IC50 in test [2] (setting [4]) was 493 nM; in test [3] (Homo sapiens, KYSE-520, 2 h) it was 343 nM. Consider `CC1(N)CCN(c2cnc3c(-c4cc(Cl)cc(Cl)c4)n[nH]c3n2)CC1` [Example 12, 1-(3-(3,5-dichloro-phenyl)-1H-pyrazolo[3,4-b]-pyrazin-6-yl)-4-methylpiperidin-4-amine], for which the IC50 in test [2] (setting [4]) was 404 nM; in test [3] (Homo sapiens, KYSE-520, 2 h) it was 623 nM. In the case of `CC1(CN)CCN(c2cnc3c(-c4ccc(Cl)c(Cl)c4)n[nH]c3n2)CC1` [Example 13, (1-(3-(3,4-dichloro-phenyl)-1H-pyrazolo[3,4-b]-pyrazin-6-yl)-4-methylpiperidin-4-yl) methanamine], the IC50 stood at 158 nM in test [2] (setting [4]) and 562 nM in test [3] (Homo sapiens, KYSE-520, 2 h).

Take `NC1C(F)CCC12CCN(c1cnc3c(-c4cccc(Cl)c4Cl)n[nH]c3n1)CC2` (single isomer, unassigned) [Example 64B, 8-(3-(2,3-Dichlorophenyl)-1H-pyrazolo[3,4-b]pyrazin-6-yl)-2-fluoro-8-azaspiro[4.5]decan-1-amine]: the IC50 in test [2] (setting [5]) was determined as 221 nM; in test [3], 70 nM. In the case of `NCC1(O)CCN(c2cnc3c(-c4ccnc(O)c4Cl)n[nH]c3n2)CC1` [Example 120, 4-(6-(4-(Aminomethyl)-4-hydroxypiperidin-1-yl)-1H-pyrazolo[3,4-b]pyrazin-3-yl)-3-chloropyridin-2-ol], the IC50 in test [2] (setting [4]) is 5370 nM; in test [3] (Homo sapiens, KYSE-520, 2 h), 9700 nM. In the same order, the values of `N[C@@H]1COCC12CCN(c1cnc3c(-c4ccnc(O)c4Cl)n[nH]c3n1)CC2` [Example 109, (S)-4-(6-(4-Amino-2-oxa-8-azaspiro[4.5]decan-8-yl)-1H-pyrazolo[3,4-b]pyrazin-3-yl)-3-chloropyridin-2-ol] are 1100 nM and 10000 nM. In the case of `Nc1nccc(-c2n[nH]c3nc(N4CCC5(CC4)COC[C@H]5N)cnc23)c1Cl` [Example 116, (S)-8-(3-(2-Amino-3-chloropyridin-4-yl)-1H-pyrazolo[3,4-b]pyrazin-6-yl)-2-oxa-8-azaspiro[4.5]decan-4-amine], the IC50 was determined as 132 nM in test [2] (setting [4]) and 483 nM in test [3] (Homo sapiens, KYSE-520, 2 h).

With `N[C@@H]1CCCC12CCN(c1cnc3c(-c4cccc(Cl)c4)n[nH]c3n1)CC2` [Example 44, (R)-8-(3-(3-chloro-phenyl)-1H-pyrazolo[3,4-b]-pyrazin-6-yl)-8-aza-spiro[4.5]-decan-1-amine], the IC50 in test [2] (setting [4]) came to 429 nM; in test [3] (Homo sapiens, KYSE-520, 2 h), 304 nM. With `Nc1nccc(-c2n[nH]c3nc(N4CCC(N)(CO)CC4)cnc23)c1Cl` [Example 119, (4-Amino-1-(3-(2-amino-3-chloropyridin-4-yl)-1H-pyrazolo[3,4-b]pyrazin-6-yl)-piperidin-4-yl)methanol], the IC50 in test [2] (setting [4]) amounted to 422 nM; in test [3] (Homo sapiens, KYSE-520, 2 h), 1730 nM. Take `N[C@@H]1CCCC12CCN(c1cnc3c(-c4ccccc4Cl)n[nH]c3n1)CC2` [Example 54, (R)-8-(3-(2-chlorophenyl)-1H-pyrazolo[3,4-b]-pyrazin-6-yl)-8-aza-spiro[4.5]decan-1-amine]: the IC50 in test [2] (setting [4]) worked out at 119 nM; in test [3] (Homo sapiens, KYSE-520, 2 h) it was 64 nM. In the same order, the values of `NCC1(O)CCN(c2cnc3c(-c4cccc(F)c4Cl)n[nH]c3n2)CC1` [Example 37, 4-(Aminomethyl)-1-(3-(2-chloro-3-fluorophenyl)-1H-pyrazolo[3,4-b]pyrazin-6-yl)-piperidin-4-ol] are 623 nM and 223 nM.

As to `CC1(CN)CCN(c2cnc3c(-c4ccnc(O)c4Cl)n[nH]c3n2)CC1` [Example 118, 4-(6-(4-(Aminomethyl)-4-methylpiperidin-1-yl)-1H-pyrazolo[3,4-b]pyrazin-3-yl)-3-chloropyridin-2-ol], the IC50 in test [2] (setting [4]) came to 1130 nM; in test [3] (Homo sapiens, KYSE-520, 2 h) it was 8280 nM. With `N[C@@H]1COCC12CCN(c1cnc3c(-c4c(F)cccc4Cl)n[nH]c3n1)CC2` [Example 40, (4S)-8-(3-(2-Chloro-6-fluorophenyl)-1H-pyrazolo[3,4-b]-pyrazin-6-yl)-2-oxa-8-azaspiro[4.5]-decan-4-amine], the IC50 in test [2] (setting [4]) was found to be 203 nM; in test [3] (Homo sapiens, KYSE-520, 2 h), 186 nM. For the compound `CC1(N)CCN(c2cnc3c(-c4ccc(Cl)cc4)n[nH]c3n2)CC1` [Example 15, 1-(3-(4-Chlorophenyl)-1H-pyrazolo[3,4-b]pyrazin-6-yl)-4-methylpiperidin-4-amine], the IC50 in test [2] (setting [4]) stood at 140 nM; in test [3] (Homo sapiens, KYSE-520, 2 h), 103 nM.

On to `NC1(CO)CCN(c2cnc3c(-c4ccccc4Cl)n[nH]c3n2)CC1` [Example 61, (4-amino-1-(3-(2-chlorophenyl)-1H-pyrazolo[3,4-b]-pyrazin-6-yl)-piperidin-4-yl)-methanol], for which the IC50 in test [2] (setting [4]) stood at 401 nM; in test [3] (Homo sapiens, KYSE-520, 2 h), 221 nM. Turning to `CC1(N)CCN(c2cnc3c(-c4cccc(C(F)(F)F)c4)n[nH]c3n2)CC1` [Example 21, 4-Methyl-1-(3-(3-(trifluoromethyl)phenyl)-1H-pyrazolo[3,4-b]pyrazin-6-yl)piperidin-4-amine], the IC50 in test [2] (setting [4]) turned out to be 956 nM; in test [3] (Homo sapiens, KYSE-520, 2 h), 620 nM. In the same order, the values of `Cc1ncccc1-c1n[nH]c2nc(N3CCC4(CCC[C@H]4N)CC3)cnc12` [Example 55, (R)-8-(3-(2-methyl-pyridin-3-yl)-1H-pyrazolo[3,4-b]-pyrazin-6-yl)-8-azaspiro[4.5]decan-I -amine] are 1140 nM and 712 nM. In the same order, the values of `NC1(CO)CCN(c2cnc3c(-c4ccnc(O)c4Cl)n[nH]c3n2)CC1` [Example 110, 4-(6-(4-Amino-4-(hydroxymethyl)piperidin-1-yl)-1H-pyrazolo[3,4-b]pyrazin-3-yl)-3-chloropyridin-2-ol] are 3680 nM and 7850 nM.

For `CC1(N)CCN(c2cnc3c(-c4cccc(N)c4Cl)n[nH]c3n2)CC1` [Example 105, 1-(3-(3-amino-2-chlorophenyl)-1H-pyrazolo[3,4-b]pyrazin-6-yl)-4-methylpiperidin-4-amine], the IC50 turned out to be 191 nM in test [2] (setting [4]) and 120 nM in test [3] (Homo sapiens, KYSE-520, 2 h). Consider `CC1(N)CCN(c2cnc3c(-c4ccccc4Cl)n[nH]c3n2)CC1` [Example 20, 1-(3-(2-Chlorophenyl)-1H-pyrazolo[3,4-b]pyrazin-6-yl)-4-methylpiperidin-4-amine], for which the IC50 in test [2] (setting [4]) was determined as 326 nM; in test [3] (Homo sapiens, KYSE-520, 2 h) it was 158 nM. In the same order, the values of `NCC1(O)CCN(c2cnc3c(-c4ccnc(N)c4Cl)n[nH]c3n2)CC1` [Example 114, 1-(3-(2-Amino-3-chloropyridin-4-yl)-1H-pyrazolo[3,4-b]pyrazin-6-yl)-4-(aminomethyl)piperidin-4-ol] are 779 nM and 2490 nM. In the same order, the values of `Clc1cccc(-c2n[nH]c3nc(N4CCC5(CCN5)CC4)cnc23)c1Cl` [Example 7, 3-(2,3-dichloro-phenyl)-6-(1,7-diaza-spiro[3.5]nonan-7-yl)-1H-pyrazolo[3,4-b]pyrazine] are 196 nM and 79 nM. As to `NC1C(F)CCC12CCN(c1cnc3c(-c4cccc(Cl)c4Cl)n[nH]c3n1)CC2` (single isomer, unassigned; isomer a) [Example 64A, 8-(3-(2,3-Dichlorophenyl)-1H-pyrazolo[3,4-b]pyrazin-6-yl)-2-fluoro-8-azaspiro[4.5]decan-1-amine, isomer A], the IC50 was determined as 98 nM in test [2] (setting [5]) and 34 nM in test [3]. Regarding `CNc1nccc(-c2n[nH]c3nc(N4CCC(C)(CN)CC4)cnc23)c1Cl` [Example 104, 4-(6-(4-(Aminomethyl)-4-methylpiperidin-1-yl)-1H-pyrazolo[3,4-b]pyrazin-3-yl)-3-chloro-N-methylpyridin-2-amine], the IC50 came to 99 nM in test [2] (setting [4]) and 47 nM in test [3] (Homo sapiens, KYSE-520, 2 h). In the same order, the values of `Cc1ncccc1-c1n[nH]c2nc(N3CCC(C)(CN)CC3)cnc12` [Example 30, (4-methyl-1-(3-(2-methylpyridin-3-yl)-1H-pyrazolo[3,4-b]pyrazin-6-yl)-piperidin-4-yl) methanamine] are 2510 nM and 1600 nM.

Regarding `CC1(CN)CCN(c2cnc3c(-c4ccc(F)c(Cl)c4)n[nH]c3n2)CC1` [Example 14, (1-(3-(3-Chloro-4-fluorophenyl)-1H-pyrazolo[3,4-b]-pyrazin-6-yl)-4-methylpiperidin-4-yl) methanamine], the IC50 in test [2] (setting [4]) was 521 nM; in test [3] (Homo sapiens, KYSE-520, 2 h) it was 569 nM.
